What was measured:
[1] = molecular target: recombinant human NF-kappaB-inducing Kinase (NIK/MAP3K14) (Homo sapiens, UniProt Q99558); experiment: Inhibition of auto-phosphorylation of recombinant human NIK/MAP3K14 activity (AlphaScreen); assay type: biochemical; details: 25 microM ATP, averaged over all measurements on all batches
[2] = test system: P-IKKα levels in L363 (NIK translocated multiple myeloma) cells; experiment: Effect of compounds on P-IKKα levels in L363 cells (Mesoscale sandwich immuno-assay); assay type: cell-based, human; details: Homo sapiens, L-363, 2 h, 2 hr treatment, averaged values, read-out: Inhibition of pIKKα_L-363 (IC50 (nM))
Protocol: Effect of Compounds on P-IKKα Levels in L363 (NIK Translocated Multiple Myeloma) Cells
All compounds tested were dissolved in DMSO and further dilutions were made in culture medium. Final DMSO concentration was 1% (v/v) in cell assays. The human L363 cells (ATCC) were cultured in RPMI 1640 medium supplemented with GlutaMax and 10% fetal calf serum (PAA). Cells were routinely maintained at densities of 0.2×10^6 cells per ml-1×10^6 cells per ml at 37° C. in a humidified 5% CO2 atmosphere. Cells were passaged twice a week splitting back to obtain the low density. Cells were seeded in 96 well plates (Nunc 167008) at 2×10^6 per ml media in a volume of 75 μl per well plus 25 μl 1 μg/ml recombinant human B-cell activating factor (BAFF/BLyS/TNFSF13B). Seeded cells were incubated at 37° C. in a humidified 5% CO2 atmosphere for 24 hr. Drugs and/or solvents were added (20 μl) to a final volume of 120 μl. Following 2 hr treatment plates were removed from the incubator and cell lysis was achieved by the addition of 30 μl 5× lysis buffer followed by shaking on a plate shaker at 4° C. for 10 min. At the end of this incubation lysed cells were centrifuged at 800×g for 20 min at 4° C. and the lysate was assessed for P-IKK levels by sandwich immuno-assay carried out in anti-rabbit antibody coated Mesoscale plates. Within an experiment, the results for each treatment were the mean of 2 replicate wells. For initial screening purposes, compounds were tested using an 8 point dilution curve (serial 1:3 dilutions). […] The blank incubation value was subtracted from all control and sample values. To determine the IC50 a sigmoidal curve was fitted to the plot of % inhibition of control P-IKKα levels versus Log10 compound concentration.

[3] = test system: JJN-3 (NIK translocated) multiple myeloma cells; experiment: Antiproliferative activity on JJN-3 multiple myeloma cells (CellTiter-Glo); assay type: cell-based, human; details: Homo sapiens, JJN-3, 96 h, JJN-3 (NIK translocated) cells, 96 hr treatment, averaged values, read-out: JJN-3 Proliferation inhibition (IC50 (nM))
Summary of the method: (§1)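 Cells plated at 15000 (JJN3) or 20000 (KMS12BM) per well and treated 96 h at 37° C, 5% CO2, final DMSO 0.3%, 9-point 1:3 dilutions. Viability by CellTiter-Glo luminescence; time-zero blank subtracted, growth expressed as percent of untreated control.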

[4] = test system: KMS12-BM (NIK WT) multiple myeloma cells; experiment: Antiproliferative activity on KMS12-BM multiple myeloma cells (CellTiter-Glo); assay type: cell-based, human; details: Homo sapiens, KMS-12-BM, 96 h, 96 hr treatment, averaged values, read-out: KMS-12 Proliferation inhibition (IC50 (nM))
Summary of the method: as §1

Sequence of recombinant human NF-kappaB-inducing Kinase (NIK/MAP3K14) (Q99558 whole entry): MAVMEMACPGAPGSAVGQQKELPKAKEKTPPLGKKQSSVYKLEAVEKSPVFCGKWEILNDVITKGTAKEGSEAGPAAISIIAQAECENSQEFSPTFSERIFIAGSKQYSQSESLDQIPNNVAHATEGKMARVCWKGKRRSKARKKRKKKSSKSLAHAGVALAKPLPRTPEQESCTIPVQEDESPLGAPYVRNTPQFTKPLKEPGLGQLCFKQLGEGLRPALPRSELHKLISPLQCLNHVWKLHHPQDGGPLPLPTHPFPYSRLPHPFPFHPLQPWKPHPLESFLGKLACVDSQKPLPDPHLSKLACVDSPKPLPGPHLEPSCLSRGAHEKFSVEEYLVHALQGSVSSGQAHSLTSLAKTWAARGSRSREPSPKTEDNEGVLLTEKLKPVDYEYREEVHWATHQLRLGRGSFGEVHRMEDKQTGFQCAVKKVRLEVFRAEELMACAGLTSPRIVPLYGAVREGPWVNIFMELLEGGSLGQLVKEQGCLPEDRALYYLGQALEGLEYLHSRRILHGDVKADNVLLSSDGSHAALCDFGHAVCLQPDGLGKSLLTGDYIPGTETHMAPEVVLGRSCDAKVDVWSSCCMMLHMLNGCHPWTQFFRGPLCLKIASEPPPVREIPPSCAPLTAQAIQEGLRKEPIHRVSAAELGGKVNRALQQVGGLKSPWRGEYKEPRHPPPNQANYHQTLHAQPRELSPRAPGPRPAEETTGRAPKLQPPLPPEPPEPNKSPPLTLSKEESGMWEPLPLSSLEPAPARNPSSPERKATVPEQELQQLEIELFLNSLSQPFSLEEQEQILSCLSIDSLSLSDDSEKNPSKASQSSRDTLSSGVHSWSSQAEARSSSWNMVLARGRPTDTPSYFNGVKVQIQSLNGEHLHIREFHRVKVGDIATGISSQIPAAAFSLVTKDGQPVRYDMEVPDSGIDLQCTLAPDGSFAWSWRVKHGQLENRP

SMILES	IC50 [1] [nM]	IC50 [2] [nM]	IC50 [3] [nM]	IC50 [4] [nM]
COc1nc(C2CCOCC2)ncc1Nc1nccc(-c2cc(C#N)c3c(c2)[C@@](C)(CO)CN3)n1 [Compound 140]	4.8	12	427	> 10000
Cc1cc(Nc2nccc(-c3cc(C#N)c4c(c3)C(C)(C)CN4)n2)c(=O)n(CCN2CC(F)C2)c1 [Compound 27i]	5.8	13.8	148	> 10000
COc1nc(CC(C)C)c(Nc2nccc(-c3cc(C#N)c4c(c3)[C@@](C)(CO)CN4)n2)cc1C [Compound 161]	28.2	46.8	417	> 10000
COCCOc1nc(P(C)(C)=O)ccc1Nc1nccc(-c2cc(C#N)c3c(c2)[C@@](C)(CO)CN3)n1 [Compound 60]	7.2	70.8	708	> 10000
CC(C)(CO)Oc1ncc(C#N)cc1Nc1nccc(-c2cc(C#N)c3c(c2)[C@@](C)(CO)CN3)n1 [Compound 78]	4.7	28.2	589	> 10000
COCCOc1ncc(C2CC2)cc1Nc1nccc(-c2cc(C#N)c3c(c2)[C@@](C)(CO)CN3)n1 [Compound 67]	12.3	186	204	> 10000
COCCNc1nc(OC)c(Nc2nccc(-c3cc(C#N)c4c(c3)C(C)(C)CN4)n2)cc1Cl [Compound 98]	50.1	45.7	832	> 10000
Cc1cc(Nc2nccc(-c3cc(C#N)c4c(c3)[C@@](C)(CO)CN4)n2)c(=O)n(CCC2CC2)c1 [Compound 5i]	4.5	15.8	282	5010
CC(C)Oc1ncc(C#N)cc1Nc1nccc(-c2cc(C#N)c3c(c2)[C@@](C)(CO)CN3)n1 [Compound 75]	9.8	18.2	> 10000	> 10000
COc1ncccc1Nc1nccc(-c2cc(C#N)c3c(c2)C(C)(C)CN3)n1 [Compound 97]	9.8	42.7	1820	> 10000

The next compounds have a lower IC50 [1] than those just listed; values first:

IC50 [1] [nM]	IC50 [2] [nM]	IC50 [3] [nM]	IC50 [4] [nM]	SMILES
1.6	2.3	49	> 10000	Cc1cc(Nc2ncc(F)c(-c3cc(C#N)c4c(c3)[C@@](C)(CO)CN4)n2)c(C)cn1 [Compound 158]
2.5	3	372	> 10000	C[C@]1(CO)CNc2c(C#N)cc(-c3ccnc(Nc4cc(C#N)cnc4OC4CC4)n3)cc21 [Compound 85]
1.3	6.2	117	> 10000	CNC(=O)c1cc(Nc2nccc(-c3cc(C#N)c4c(c3)[C@@](C)(CO)CN4)n2)c(C)cn1 [Compound 165]
1.2	3.7	115	9550	Cc1cc(Nc2nccc(-c3cc(C#N)c4c(c3)[C@@](C)(CO)CN4)n2)c(=O)n(CCN2CCOCC2)c1 [Compound 7i]
3.8	27.5	427	> 10000	CNC(=O)c1cnc(CCC2CC2)c(Nc2nccc(-c3cc(C#N)c4c(c3)[C@@](C)(CO)CN4)n2)c1 [Compound 87]
1.9	32.4	5890	> 10000	Cc1nc(P(C)(C)=O)c(Cl)cc1Nc1nccc(-c2cc(C#N)c3c(c2)[C@@](C)(CO)CN3)n1 [Compound 90]
2.1	2.3	28	> 10000	Cc1cc(Nc2nccc(-c3cc(C#N)c4c(c3)[C@@](C)(CO)CN4)n2)c(=O)n(CC2COCCN2C)c1 (stereo partly shown) [Compound 26i]
4.3	13.8	316	~8130	CC(C)Oc1nc(P(C)(C)=O)ccc1Nc1nccc(-c2cc(C#N)c3c(c2)[C@@](C)(CO)CN3)n1 [Compound 57]
3.7	38.9	525	> 10000	Cc1cnc(CCC(=O)N(C)C)c(Nc2nccc(-c3cc(C#N)c4c(c3)[C@@](C)(CO)CN4)n2)c1 [Compound 80]
